Assay results: patent US20240217951A1, “PCSK9 INHIBITORS AND METHODS OF USE THEREOF” (AstraZeneca AB, priority 2022, published 2024)

Experiments:
[1] = molecular target: T1, human PCSK9 (Homo sapiens, UniProt Q8NBP7); experiment: Assay 2 - Biophysical human PCSK9 assay (SPR, Biacore); format: binding; details: geometric mean; SPR at 30° C; read-out: Assay 2 (PCSK9 BIAcore DBA CR) GMean Kd
T1 construct: biotinylated human PCSK9 (31-692)-Avi-His6; His6 (C)
Method: Assay 2—Biophysical Human PCSK9 Assay
The SPR binding experiments were performed on a Biacore S200 optical biosensor unit at 30° C. A Series S Sensor Chip SA that is designed to bind biotinylated molecules for interaction analysis in Biacore systems was equilibrated at room temperature prior to use. The running buffer for protein tethering and subsequent ligand binding experiments was 10 mM HEPES pH 7.4, 150 mM NaCl, 0.05% (v/v) Tween 20 pH 7.4.
For the surface tethering of PCSK9, biotinylated human PCSK9 (31-692)-Avi-His6 at a concentration of 0.5 mg/mL was used. Prior to the surface tethering, the surface was exposed to a solution of 50 mM NaOH, 500 mM NaCl via 3 consecutive injections of this solution with a contact time of 60 s and a flowrate of 10 μL min^−1 to remove non-conjugated streptavidin. The PCSK9 protein was diluted to a concentration of 20 μg/mL using running buffer and injected with a contact time of 180-300 s and a flowrate of 10 μL min^−1 over a single flow channel (typically flow channel 2 or flow channel 4) with the aim to achieve protein capture levels of >5000 response units (RU). Remaining biotin binding sites were blocked via 2 consecutive injections of a 10 μM D-biotin solution in running buffer with a contact time of 60 s and a flowrate of 10 μL min^−1 over all flow-channels. Flow-channels 1 and 3 typically served as a reference surface throughout the subsequent binding experiments.
The binding experiments were all performed at a flow rate of 30 PL min^−1 and by employing the method of single-cycle kinetics. This approach involves the sequential injection of a compound concentration series without regeneration steps. A contact time between 90-150 s was selected, which was followed by a 40 min dissociation phase to allow for a proper estimation of the dissociation rate constant. Test compounds were delivered in DMSO at a concentration of 10 mM and a digital dispenser HP D300 was used to set up the compound concentration series using 6 concentrations. The tested concentrations have been 30, 100, 300, 1000, 3000 and 10000 nM. Prior to injecting any compound, the surfaces were equilibrated by injecting running buffer over them in three separate pulses. The data collection rate was set to 10 Hz.
The raw sensorgrams of the compound injections were first subjected to reference subtraction (subtracting the signal from flow channel 1 and/or 3 from the signal from channels 2 and/or 4 respectively) and then blank subtraction (subtracting the signal from injecting DMSO controls from the reference subtracted data). The resulting double-referenced sensorgrams were then fitted using a 1:1 binding interaction model using the manufactures software package to extract kinetic- and affinity data. Active compounds have been defined by creating a detectable binding signal at the highest compound concentration ([…]) of 3 RUs. Kinetic- and affinity data on active compounds are only provided for those compounds where the binding signal at the highest compound concentration ([…]) is 50% of the theoretical maximum binding signal for a 1:1 binding interaction (Rmax, typically between 15-20 RUs) in order to enable a proper fitting of the data.

[2] = molecular target: PCSK9 (Homo sapiens, UniProt Q8NBP7, G670E/V474I); experiment: biochemical
PCSK9, sequence (Q8NBP7 with tags, fused parts or gaps V474I/G670E): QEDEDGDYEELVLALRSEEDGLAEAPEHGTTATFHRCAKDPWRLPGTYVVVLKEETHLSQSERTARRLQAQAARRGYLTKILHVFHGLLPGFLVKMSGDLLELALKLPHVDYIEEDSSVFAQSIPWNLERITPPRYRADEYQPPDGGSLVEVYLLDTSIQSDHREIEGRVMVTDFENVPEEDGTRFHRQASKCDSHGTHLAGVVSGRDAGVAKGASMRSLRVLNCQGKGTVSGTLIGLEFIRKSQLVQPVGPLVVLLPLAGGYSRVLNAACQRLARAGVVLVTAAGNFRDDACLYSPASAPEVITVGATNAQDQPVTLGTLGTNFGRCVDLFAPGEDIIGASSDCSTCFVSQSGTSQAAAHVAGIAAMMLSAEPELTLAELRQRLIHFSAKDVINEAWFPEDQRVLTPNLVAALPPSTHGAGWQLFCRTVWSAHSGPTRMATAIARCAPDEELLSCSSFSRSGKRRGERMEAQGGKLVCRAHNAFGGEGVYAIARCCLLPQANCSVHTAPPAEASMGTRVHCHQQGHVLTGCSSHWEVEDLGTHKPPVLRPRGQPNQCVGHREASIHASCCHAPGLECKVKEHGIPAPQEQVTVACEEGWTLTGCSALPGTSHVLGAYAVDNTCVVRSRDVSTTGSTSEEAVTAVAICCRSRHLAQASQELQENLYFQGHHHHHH

[3] = molecular target: T2, potassium ion channel hERG (human Ether-á-go-go-Related Gene) (Homo sapiens, UniProt Q12809); experiment: Assay 5 - hERG assay (SyncroPatch 384PE patch clamp, CHO cells); format: cell-based; details: geometric mean; CHO cells over-expressing hERG; read-out: Assay 5 (hERG Hu CHO IF EPh CR-Syncro) GMean IC50
T2 construct: expressed in transfected cells; host or cells: Chinese hamster ovary K1 (CHO)
T2 sequence (Q12809 whole entry): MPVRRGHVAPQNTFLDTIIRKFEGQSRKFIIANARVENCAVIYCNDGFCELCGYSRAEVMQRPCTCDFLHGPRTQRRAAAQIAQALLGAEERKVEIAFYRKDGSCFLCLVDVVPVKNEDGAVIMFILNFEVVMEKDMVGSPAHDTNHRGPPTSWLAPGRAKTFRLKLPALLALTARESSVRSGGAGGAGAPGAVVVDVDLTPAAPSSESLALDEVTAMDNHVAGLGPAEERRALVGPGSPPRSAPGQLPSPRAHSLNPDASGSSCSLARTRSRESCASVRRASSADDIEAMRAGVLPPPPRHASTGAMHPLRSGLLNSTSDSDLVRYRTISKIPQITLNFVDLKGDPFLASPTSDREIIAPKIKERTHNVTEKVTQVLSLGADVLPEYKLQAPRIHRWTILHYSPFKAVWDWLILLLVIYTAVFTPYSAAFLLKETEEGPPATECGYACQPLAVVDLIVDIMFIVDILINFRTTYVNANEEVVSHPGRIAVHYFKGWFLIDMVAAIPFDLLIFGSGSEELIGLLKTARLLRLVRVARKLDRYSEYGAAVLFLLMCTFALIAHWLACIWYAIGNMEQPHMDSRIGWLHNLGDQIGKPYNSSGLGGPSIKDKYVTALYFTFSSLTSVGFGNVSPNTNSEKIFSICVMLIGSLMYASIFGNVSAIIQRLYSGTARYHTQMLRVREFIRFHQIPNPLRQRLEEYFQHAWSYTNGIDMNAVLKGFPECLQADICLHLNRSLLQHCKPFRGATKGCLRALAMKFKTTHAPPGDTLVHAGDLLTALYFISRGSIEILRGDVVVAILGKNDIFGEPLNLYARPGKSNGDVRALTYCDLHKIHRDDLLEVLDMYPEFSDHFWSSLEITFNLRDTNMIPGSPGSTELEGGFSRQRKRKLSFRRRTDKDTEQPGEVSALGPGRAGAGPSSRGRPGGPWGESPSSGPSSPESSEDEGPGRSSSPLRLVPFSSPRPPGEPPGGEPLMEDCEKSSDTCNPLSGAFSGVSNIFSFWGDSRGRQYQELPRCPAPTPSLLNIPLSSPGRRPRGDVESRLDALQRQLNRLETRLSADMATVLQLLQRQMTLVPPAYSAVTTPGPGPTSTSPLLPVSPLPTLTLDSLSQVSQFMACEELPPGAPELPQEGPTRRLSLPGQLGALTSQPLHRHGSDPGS
Method in brief: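 Automated high-throughput patch clamp on CHO-K1 cells overexpressing hERG at room temperature, KF/KCl internal with escin, NMDG-containing external at pH 7.4. Six-point cumulative compound addition, 0.33% DMSO final; wells kept only with seal >30 MΩ, Z′ >0.4 and current >0.2 nA.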

T1 sequence (Q8NBP7 31-692): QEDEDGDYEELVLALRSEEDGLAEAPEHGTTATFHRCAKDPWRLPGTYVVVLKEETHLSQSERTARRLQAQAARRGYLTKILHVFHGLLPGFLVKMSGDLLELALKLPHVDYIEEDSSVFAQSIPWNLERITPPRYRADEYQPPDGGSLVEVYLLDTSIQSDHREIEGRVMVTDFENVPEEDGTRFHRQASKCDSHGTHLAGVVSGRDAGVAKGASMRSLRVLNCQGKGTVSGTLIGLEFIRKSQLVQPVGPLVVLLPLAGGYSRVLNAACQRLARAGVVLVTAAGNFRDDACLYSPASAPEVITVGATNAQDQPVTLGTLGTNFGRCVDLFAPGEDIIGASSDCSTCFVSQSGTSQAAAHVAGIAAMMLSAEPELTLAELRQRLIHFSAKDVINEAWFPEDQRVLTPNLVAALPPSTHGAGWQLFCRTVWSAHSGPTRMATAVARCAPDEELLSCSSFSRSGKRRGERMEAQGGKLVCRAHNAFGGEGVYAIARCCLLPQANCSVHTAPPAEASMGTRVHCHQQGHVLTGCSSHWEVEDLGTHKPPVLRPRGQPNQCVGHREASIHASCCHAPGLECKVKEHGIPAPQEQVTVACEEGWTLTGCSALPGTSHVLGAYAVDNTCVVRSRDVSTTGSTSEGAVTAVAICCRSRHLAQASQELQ

**Q.** What does the source list for `O=c1ccc(-c2ccc(F)cc2)cn1-c1ccc(N[C@H]2CC[C@H](Nc3cnc(Cl)cn3)C2)nc1` [Example 32, 6′-(((1S,3S)-3-((5-Chloropyrazin-2-yl)amino)cyclopentyl)amino)-5-(4-fluorophenyl)-2H-[1,3′-bipyridin]-2-one]?
**A.** Kd [1]: 20 nM; IC50 [2]: 7.9 nM; IC50 [3]: 3500 nM

**Q.** `Cn1c(=O)n(-c2ccc(N[C@H]3CC[C@H](Nc4cnc(OC(F)F)cn4)C3)nc2)c2ccccc21` [Example 82, 1-(6-(((1S,3S)-3-((5-(Difluoromethoxy)pyrazin-2-yl)amino)cyclopentyl)amino)pyridin-3-yl)-3-methyl-1,3-dihydro-2H-benzo[d]imidazol-2-one] was tested. Which Kd [1] did it give?
**A.** 4.1 nM

**Q.** What about the IC50 [2] of the same compound?
**A.** 2.5 nM

**Q.** What about the IC50 [3] of the same compound?
**A.** 5500 nM

**Q.** Which Kd [1] does the source give for `COc1cccn(-c2ccc(N[C@H]3CC[C@H](Nc4cnc(C)cn4)C3)nc2)c1=O` [Example 36, 3-Methoxy-6′-(((1S,3S)-3-((5-methylpyrazin-2-yl)amino)cyclopentyl)amino)-2H-[1,3′-bipyridin]-2-one] here?
**A.** 5.3 nM

**Q.** And the IC50 [2]?
**A.** 4.1 nM

**Q.** And the IC50 [3]?
**A.** > 40000 nM

**Q.** With `Cn1c(=O)n(-c2ccc(N[C@H]3CC[C@H](Nc4cnc(Cl)cn4)C3)nc2)c2ccccc21` [Example 27, 1-(6-(((1S,3S)-3-((5-Chloropyrazin-2-yl)amino)cyclopentyl)amino)pyridin-3-yl)-3-methyl-1,3-dihydro-2H-benzo[d]imidazol-2-one] as the compound, how does the Kd [1] read?
**A.** 3.1 nM

**Q.** And the IC50 [2]?
**A.** 1.7 nM

**Q.** What about the IC50 [3] of the same compound?
**A.** 6350 nM

**Q.** `Cc1cnc(N[C@H]2CC[C@H](Nc3ccc(-n4cccc(C#N)c4=O)cn3)C2)cn1` [Example 103, 6′-(((1S,3S)-3-((5-Methylpyrazin-2-yl)amino)cyclopentyl)amino)-2-oxo-2H-[1,3′-bipyridine]-3-carbonitrile] was tested. Which Kd [1] did it give?
**A.** 4.7 nM

**Q.** And the IC50 [2]?
**A.** 5.7 nM

**Q.** And the IC50 [3]?
**A.** > 40100 nM

**Q.** Which Kd [1] does the source give for `Cc1cccn(-c2ccc(N[C@H]3CC[C@H](Nc4cnc(Cl)cn4)C3)nc2)c1=O` [Example 24, 6′-(((1S,3S)-3-((5-Chloropyrazin-2-yl)amino)cyclopentyl)amino)-3-methyl-2H-[1,3′-bipyridin]-2-one] here?
**A.** 4 nM

**Q.** What about the IC50 [2] of the same compound?
**A.** 4.3 nM

**Q.** What about the IC50 [3] of the same compound?
**A.** 20500 nM

**Q.** How did the Kd [1] turn out when `Cc1cnc(N[C@H]2CC[C@H](Nc3ccc(-n4cccc(Cl)c4=O)cn3)C2)cn1` [Example 47, 3-Chloro-6′-(((1S,3S)-3-((5-methylpyrazin-2-yl)amino)cyclopentyl)amino)-2H-[1,3′-bipyridin]-2-one] was run?
**A.** 1.9 nM

**Q.** And the IC50 [2]?
**A.** 2.1 nM

**Q.** What about the IC50 [3] of the same compound?
**A.** > 40000 nM

**Q.** Which Kd [1] does the source give for `COc1cccn(-c2ccc(N[C@H]3CC[C@H](Nc4cnc(C5CC5)cn4)C3)nc2)c1=O` [Example 106, 6′-(((1S,3S)-3-((5-Cyclopropylpyrazin-2-yl)amino)cyclopentyl)amino)-3-methoxy-2H-[1,3′-bipyridin]-2-one] here?
**A.** 3 nM

**Q.** And the IC50 [2]?
**A.** 4.5 nM

**Q.** What about the IC50 [3] of the same compound?
**A.** > 40000 nM

**Q.** With `O=c1ccc2ccccc2n1-c1ccc(N[C@H]2CC[C@H](Nc3cnc(Cl)cn3)C2)nc1` [Example 35, 1-(6-(((1S,3S)-3-((5-Chloropyrazin-2-yl)amino)cyclopentyl)amino)pyridin-3-yl)quinolin-2 (1H)-one] as the compound, how does the Kd [1] read?
**A.** 3 nM

**Q.** And the IC50 [2]?
**A.** 2 nM

**Q.** And the IC50 [3]?
**A.** 4700 nM

**Q.** `Cc1cnc(N[C@H]2CC[C@H](Nc3ccc(-n4c(=O)[nH]c5ccccc54)cn3)C2)cn1` [Example 46, 1-(6-(((1S,3S)-3-((5-Methylpyrazin-2-yl)amino)cyclopentyl)amino)pyridin-3-yl)-1,3-dihydro-2H-benzo[d]imidazol-2-one] was tested. Which Kd [1] did it give?
**A.** 4.7 nM

**Q.** And the IC50 [2]?
**A.** 3 nM

**Q.** And the IC50 [3]?
**A.** 33000 nM

**Q.** What does the source list for `COc1ccnn(-c2ccc(N[C@H]3CC[C@H](Nc4cnc(C)cn4)C3)nc2)c1=O` [Example 226, 4-Methoxy-2-(6-(((1S,3S)-3-((5-methylpyrazin-2-yl)amino)cyclopentyl)amino)pyridin-3-yl)pyridazin-3 (2H)-one]?
**A.** Kd [1]: 5.6 nM; IC50 [2]: 4 nM; IC50 [3]: > 40100 nM

**Q.** What does the source list for `Cc1cnc(N[C@H]2CC[C@H](Nc3ccc(-n4c(=O)ccc5cccnc54)cn3)C2)cn1` [Example 37, 1-(6-(((1S,3S)-3-((5-Methylpyrazin-2-yl)amino)cyclopentyl)amino)pyridin-3-yl)-1,8-naphthyridin-2(1 H)-one]?
**A.** Kd [1]: 5.5 nM; IC50 [2]: 6.5 nM; IC50 [3]: > 40000 nM

**Q.** Which results are given for `Cc1cnc(N[C@H]2CC[C@H](Nc3ccc(-n4c(=O)n(C)c5cccnc54)cn3)C2)cn1` [Example 42, 1-Methyl-3-(6-(((1S,3S)-3-((5-methylpyrazin-2-yl)amino)cyclopentyl)amino)pyridin-3-yl)-1,3-dihydro-2H-imidazo[4,5-b]pyridin-2-one]?
**A.** Kd [1]: 5 nM; IC50 [2]: 5.8 nM; IC50 [3]: > 40000 nM

**Q.** With `O=C(O)c1ccc(=O)n(-c2ccc(N[C@H]3CC[C@H](Nc4cnc(Cl)cn4)C3)nc2)c1` [Example 33, 6′-(((1S,3S)-3-((5-Chloropyrazin-2-yl)amino)cyclopentyl)amino)-2-oxo-2H-[1,3′-bipyridine]-5-carboxylic acid] as the compound, how does the Kd [1] read?
**A.** 13 nM

**Q.** What about the IC50 [2] of the same compound?
**A.** 12 nM

**Q.** And the IC50 [3]?
**A.** > 40000 nM

**Q.** What does the source list for `Cc1cnc(N[C@H]2CC[C@H](Nc3ccc(-n4c(=O)n(C)c5ccccc54)cn3)C2)cn1` [Example 45, 1-Methyl-3-(6-(((1S,3S)-3-((5-methylpyrazin-2-yl)amino)cyclopentyl)amino)pyridin-3-yl)-1,3-dihydro-2H-benzo[d]imidazol-2-one]?
**A.** Kd [1]: 1.5 nM; IC50 [2]: 1.5 nM; IC50 [3]: 23100 nM

**Q.** What does the source list for `Cc1cnc(N[C@H]2CC[C@H](Nc3ccc(-n4cccc(C)c4=O)cn3)C2)cn1` [Example 44, 3-Methyl-6′-(((1S,3S)-3-((5-methylpyrazin-2-yl)amino)cyclopentyl)amino)-2H-[1,3′-bipyridin]-2-one]?
**A.** Kd [1]: 4.5 nM; IC50 [2]: 5.5 nM; IC50 [3]: > 40000 nM

**Q.** Which Kd [1] does the source give for `COc1cccn(-c2ccc(N[C@H]3CC[C@H](Nc4cnc(OC(F)F)cn4)C3)nc2)c1=O` [Example 94, 6′-(((1S,3S)-3-((5-(Difluoromethoxy)pyrazin-2-yl)amino)cyclopentyl)amino)-3-methoxy-2H-[1,3′-bipyridin]-2-one] here?
**A.** 12 nM

**Q.** What about the IC50 [2] of the same compound?
**A.** 7.7 nM

**Q.** What about the IC50 [3] of the same compound?
**A.** 17500 nM
